The text below walks through data of US20100322882A1, “SOLUBILIZING AGENTS FOR ACTIVE OR FUNCTIONAL ORGANIC COMPOUNDS” (ISP INVESTMENTS INC., priority 2006, published 2010).

Data set [1] in a line: Solubility of solid organic sunscreens in solubilizers (25° C.). As to conditions: for Solubility of MBC in the solvent: solute 4-Methylbenzylidene camphor (MBC); for Solubility of E-517 (Avobenzone) in the solvent: solute Avobenzone (E-517); for Solubility of BEMT in the solvent: solute Bis-ethylhexyloxyphenol methoxyphenyl triazine (BEMT); for Solubility of EHT in the solvent: solute Ethylhexyl triazone (EHT); for Solubility of E-567 (Oxybenzone) in the solvent: solute Oxybenzone (E-567). Type of data set: physicochemical. As to the method:
Upon cooling to 25° C., a few seed crystals (<10 mg) of the sunscreen were added to hasten equilibration. The solutions were stored in the dark in a constant temperature chamber at 25° C. Each was sampled weekly, and the ca. 0.1 g sample was filtered through a 0.45μ syringe filter and analyzed by GLC or HPLC, calibrated using standard solutions, until the value for wt. % of solute was constant.

Data set [2] in a line: UV absorption spectra of sunscreens in selected solvents. Also noted: λmax of E-517 / λmax of E-567 / λmax of BEMT / λmax of EHT: unit not given here. As to conditions: for ε of BEMT at λmax / λmax of BEMT: 10 mg/L BEMT in the solvent; for ε of E-517 at λmax / λmax of E-517: 10 mg/L E-517 in the solvent; for ε of E-567 at λmax / λmax of E-567: 10 mg/L E-567 in the solvent; for ε of EHT at λmax / λmax of EHT: 10 mg/L EHT in the solvent; for ε of MBC at λmax / λmax of MBC: 10 mg/L MBC in the solvent. Type of data set: physicochemical. On the procedure: Solutions containing 10 mg/L of sunscreen in selected solvents were prepared, and their UV spectra were measured using a Cary 1E UV-Visible spectrophotometer. […] They are also higher in 2-phenylethyl cyclohexanoate for Escalol® 517 and Escalol® 567.

The mark [3] stands for this setting: second (shorter wavelength) band.

Regarding `CCC(=O)OC(C)c1ccccc1` (stereo not shown) [1-phenylethyl propionate], in data set [1], the “Solubility of MBC in the solvent” value turned out to be 44 wt. %, the “Solubility of E-517 (Avobenzone) in the solvent” value (“Solubility of E-517 (Avobenzone)” for short) worked out at 23 wt. %, the “Solubility of BEMT in the solvent” value was found to be 26 wt. % and the “Solubility of EHT in the solvent” value is recorded as 10 wt. %. The “Solubility of E-567 (Oxybenzone) in the solvent” value (shortened to “Solubility of E-567 (Oxybenzone)”) in data set [1] turned out to be 38 wt. %.
For `CCC(=O)OCCOc1ccccc1` [2-phenoxyethyl propionate] the same measures were 39 wt. %, 21 wt. %, 13 wt. %, 6 wt. % and 38 wt. %.
As to `CCCCC(CC)C(=O)OCCc1ccccc1` (stereo not shown) [2-phenylethyl 2-ethylhexanoate], in data set [1], the “Solubility of MBC in the solvent” value was 34 wt. %, the “Solubility of E-517 (Avobenzone)” value came out at 17 wt. %, the “Solubility of BEMT in the solvent” value is listed as 18 wt. % and the “Solubility of EHT in the solvent” value turned out to be 4 wt. %. The “Solubility of E-567 (Oxybenzone)” value in data set [1] was determined as 25 wt. %.
With `CC(=O)OCCc1ccccc1` [2-phenylethyl acetate], in data set [1], the “Solubility of MBC in the solvent” value is listed as 44 wt. %, the “Solubility of E-517 (Avobenzone)” value is recorded as 26 wt. %, the “Solubility of BEMT in the solvent” value was determined as 26 wt. % and the “Solubility of EHT in the solvent” value amounted to 14 wt. %. In data set [1], the “Solubility of E-567 (Oxybenzone)” value is given as 44 wt. %.
As to `O=C(OCCc1ccccc1)C1CCCCC1` [2-phenylethyl cyclohexanoate, 2-Phenylethyl Cyclohexanecarboxylate], in data set [2] (first (longer wavelength) band), the “ε of BEMT at λmax” value is on record as “(49,000)”, the “λmax of BEMT” value was 345, the “ε of E-517 at λmax” value was “(34,500)” and the “λmax of E-517” value was determined as 359. In addition, in data set [2] (first (longer wavelength) band), the “ε of E-567 at λmax” value is reported as “(12,100)” and the “λmax of E-567” value is given as 326. In data set [2] (setting [3]), the “ε of EHT at λmax” value is “(47,300)”, the “λmax of EHT” value came out at 317, the “ε of MBC at λmax” value is “(10,400)” and the λmax of MBC was 317 nm. In data set [1], the “Solubility of MBC in the solvent” value is recorded as 37 wt. %, the “Solubility of E-517 (Avobenzone)” value was 20 wt. %, the “Solubility of BEMT in the solvent” value came out at 32 wt. % and the “Solubility of EHT in the solvent” value was determined as 10 wt. %. The “Solubility of E-567 (Oxybenzone)” value in data set [1] turned out to be 32 wt. %.
On to `O=C(OCCc1ccccc1)C1CC1` [2-phenylethyl cyclopropanoate, 2-Phenylethyl Cyclopropanecarboxylate], for which, in data set [1], the “Solubility of MBC in the solvent” value was found to be 42 wt. %, the “Solubility of E-517 (Avobenzone)” value is reported as 24 wt. %, the “Solubility of BEMT in the solvent” value came out at 27 wt. % and the “Solubility of EHT in the solvent” value is 16 wt. %. In addition, in data set [1], the “Solubility of E-567 (Oxybenzone)” value was 39 wt. %.
The matching figures for `CC(C)(C)C(=O)OCCc1ccccc1` [2-phenylethyl neopentanoate]: 38 wt. %, 19 wt. %, 28 wt. %, 5 wt. % and 29 wt. %.
In the case of `CCCCCCCC(=O)OCCc1ccccc1` [2-phenylethyl octanoate], in data set [1], the “Solubility of MBC in the solvent” value was 36 wt. %, the “Solubility of E-517 (Avobenzone)” value is reported as 19 wt. %, the “Solubility of BEMT in the solvent” value is recorded as 23 wt. % and the “Solubility of EHT in the solvent” value is on record as 8 wt. %. Besides, in data set [1], the “Solubility of E-567 (Oxybenzone)” value is given as 27 wt. %.
In the case of `CCCCC(=O)OCCc1ccccc1` [2-phenylethyl pentanoate, 2-Phenylethyl Pentanoate], in data set [2] (first (longer wavelength) band), the “ε of BEMT at λmax” value is recorded as “(48,000)”, the “λmax of BEMT” value was 345, the “ε of E-517 at λmax” value is “(34,100)” and the “λmax of E-517” value worked out at 359. Further, in data set [2] (first (longer wavelength) band), the “ε of E-567 at λmax” value is recorded as “(9,600)” and the “λmax of E-567” value amounted to 327. In addition, in data set [2] (setting [3]), the “ε of BEMT at λmax” value is “(42,900)”, the “λmax of BEMT” value was 312, the “ε of E-567 at λmax” value is “(14,300)” and the “λmax of E-567” value was determined as 287. Also, in data set [2] (setting [3]), the “ε of EHT at λmax” value is on record as “(123,000)”, the “λmax of EHT” value came out at 312, the “ε of MBC at λmax” value is on record as “(23,600)” and the λmax of MBC came to 298 nm. Besides, in data set [1], the “Solubility of MBC in the solvent” value is 41 wt. %, the “Solubility of E-517 (Avobenzone)” value is recorded as 22 wt. %, the “Solubility of BEMT in the solvent” value is on record as 27 wt. % and the “Solubility of EHT in the solvent” value came out at 10 wt. %. The “Solubility of E-567 (Oxybenzone)” value in data set [1] was 35 wt. %.
In the case of `CCC(=O)OCCc1ccccc1` [2-phenylethyl propionate], in data set [1], the “Solubility of MBC in the solvent” value worked out at 44 wt. %, the “Solubility of E-517 (Avobenzone)” value is 25 wt. %, the “Solubility of BEMT in the solvent” value came to 33 wt. % and the “Solubility of EHT in the solvent” value turned out to be 12 wt. %. The “Solubility of E-567 (Oxybenzone)” value in data set [1] was found to be 40 wt. %.
For `CCCC(=O)OCc1ccccc1` [benzyl butyrate], in data set [1], the “Solubility of E-517 (Avobenzone)” value was found to be 24 wt. %, the “Solubility of BEMT in the solvent” value is 32 wt. %, the “Solubility of EHT in the solvent” value was determined as 10 wt. % and the “Solubility of E-567 (Oxybenzone)” value stood at 39 wt. %.
As for `CC(O)C(=O)OCc1ccccc1` (stereo not shown) [benzyl lactate], in data set [1], the “Solubility of MBC in the solvent” value worked out at 30 wt. %, the “Solubility of E-517 (Avobenzone)” value is 11 wt. %, the “Solubility of BEMT in the solvent” value is listed as 2 wt. % and the “Solubility of EHT in the solvent” value is recorded as 8 wt. %. For the same compound, the “Solubility of E-567 (Oxybenzone)” value in data set [1] is 30 wt. %.
Regarding `CCCCCCCCOC(=O)OCc1ccccc1` [benzyl octyl carbonate], in data set [1], the “Solubility of MBC in the solvent” value worked out at 35 wt. %, the “Solubility of E-517 (Avobenzone)” value is 17 wt. %, the “Solubility of BEMT in the solvent” value was determined as 18 wt. % and the “Solubility of EHT in the solvent” value amounted to 6 wt. %. The “Solubility of E-567 (Oxybenzone)” value in data set [1] is 27 wt. %.
For `CCCCCCCCOC(=O)OCCCCCCCC` [dioctyl carbonate, reference compound] the same measures were 29 wt. %, 13 wt. %, 10 wt. %, 7 wt. % and 16 wt. %.
For `CC(C)CCCCCCCOC(=O)C(C)(C)C` [isodecyl neopentanoate, reference compound] the same measures were 26 wt. %, 8 wt. %, 5 wt. %, 3 wt. % and 11 wt. %.
Take “C12-15 alkyl benzoate [reference compound]”: in data set [2] (first (longer wavelength) band), the “ε of BEMT at λmax” value is listed as “(43,800)”, the “λmax of BEMT” value is reported as 347, the “ε of E-517 at λmax” value is “(33,400)” and the “λmax of E-517” value is on record as 358. For the same compound, in data set [2] (first (longer wavelength) band), the “ε of E-567 at λmax” value is on record as “(9,260)” and the “λmax of E-567” value turned out to be 328. In addition, in data set [2] (setting [3]), the “ε of BEMT at λmax” value was “(40,800)”, the “λmax of BEMT” value is 313, the “ε of E-567 at λmax” value is “(9,310)” and the “λmax of E-567” value was determined as 298. Besides, in data set [2] (setting [3]), the “ε of EHT at λmax” value is listed as “(117,000)”, the “λmax of EHT” value was found to be 313, the “ε of MBC at λmax” value was “(22,000)” and the λmax of MBC is 301 nm.
